Measurements published in patent publication US10772893B2, “2-(morpholin-4-yl)-1,7-naphthyridines” (BAYER PHARMA AKTIENGESELLSCHAFT, priority 2014, dated 2020).

These compounds were tested on HeLa cells (assay: Proliferation assay, crystal violet staining). Details: Homo sapiens, 96 h, read-out: Inhibition of HeLa cell proliferation.
`CCOP(=O)(CC(C)C)c1cc(N2CCOC[C@H]2C)nc2c(-c3ccn[nH]3)nccc12` (stereo partly drawn) [Example 144, ethyl isobutyl{2-[(3R)-3-methylmorpholin-4-yl]-8-(1H-pyrazol-5-yl)-1,7-naphthyridin-4-yl}phosphinate] was tested, and the IC50 was over 3000 nM.

Same assay, conditions: Homo sapiens, 96 h, read-out: Inhibition of HeLa cell proliferation, HeLa cells, 4 days incubation
Compound `Fc1ccc(-c2cc(N3CCOCC3)nc3c(-c4ccn[nH]4)nccc23)c(F)c1` [Example 340, 4-(2,4-difluorophenyl)-2-(morpholin-4-yl)-8-(1H-pyrazol-5-yl)-1,7-naphthyridine] has an IC50 of 2950 nM. Compound `NC(=O)c1ccc(-c2cc(N3CCOCC3)nc3c(-c4ccn[nH]4)nccc23)cc1` [Example 296, 4-[2-(morpholin-4-yl)-8-(1H-pyrazol-5-yl)-1,7-naphthyridin-4-yl]benzamide] has an IC50 of 2740 nM. `c1cc(-c2cc(N3CCOCC3)nc3c(-c4ccn[nH]4)nccc23)ccn1` [Example 221, 2-(morpholin-4-yl)-8-(1H-pyrazol-5-yl)-4-(pyridin-4-yl)-1,7-naphthyridine] was tested, and the IC50 was over 3000 nM. Work on `Cc1c(-c2cc(N3CCOC[C@H]3C)nc3c(-c4ccn[nH]4)nccc23)cnn1C` [Example 250, 4-(1,5-dimethyl-1H-pyrazol-4-yl)-2-[(3R)-3-methylmorpholin-4-yl]-8-(1H-pyrazol-5-yl)-1,7-naphthyridine] yielded an IC50 of 116 nM. For `C[C@@H]1COCCN1c1cc(-c2cn(C)nc2C(F)(F)F)c2ccnc(-c3ccn[nH]3)c2n1` [Example 259, 2-[(3R)-3-methylmorpholin-4-yl]-4-[1-methyl-3-(trifluoromethyl)-1H-pyrazol-4-yl]-8-(1H-pyrazol-5-yl)-1,7-naphthyridine], the IC50 was 497 nM. `C[C@@H]1CN(c2cc(N3CCOCC3)nc3c(-c4ccn[nH]4)nccc23)CCO1` [Example 162, 4-[(2R)-2-methylmorpholin-4-yl]-2-(morpholin-4-yl)-8-(1H-pyrazol-5-yl)-1,7-naphthyridine] was tested, and the IC50 was 1220 nM. With `O=S(=O)(c1ccccc1)c1cc(N2CCOCC2)nc2c(-c3ccn[nH]3)nccc12` [Example 198, 2-(morpholin-4-yl)-4-(phenylsulfonyl)-8-(1H-pyrazol-5-yl)-1,7-naphthyridine] the IC50 was over 3000 nM. `C[C@@H]1COCCN1c1cc(C(C)(C)O)c2ccnc(-c3ccn[nH]3)c2n1` [Example 128, 2-{2-[(3R)-3-methylmorpholin-4-yl]-8-(1H-pyrazol-5-yl)-1,7-naphthyridin-4-yl}propan-2-ol] showed an IC50 of 770 nM. `Cc1nn(C)cc1-c1cc(N2CCOC[C@H]2C)nc2c(-c3ccn[nH]3)nccc12` [Example 249, 4-(1,3-dimethyl-1H-pyrazol-4-yl)-2-[(3R)-3-methylmorpholin-4-yl]-8-(1H-pyrazol-5-yl)-1,7-naphthyridine] gave an IC50 of 409 nM. With `O=S1(=Nc2cc(N3CCOCC3)nc3c(-c4ccn[nH]4)nccc23)CCCCC1` [Example 280, N-[2-(morpholin-4-yl)-8-(1H-pyrazol-5-yl)-1,7-naphthyridin-4-yl]hexahydro-1λ^4-thiopyran-1-imine 1-oxide] the IC50 was 417 nM. `C[C@@H]1COCCN1c1cc(C(C)(O)C2CCOCC2)c2ccnc(-c3ccn[nH]3)c2n1` (stereo partly drawn) [Example 282, 1-{2-[(3R)-3-methylmorpholin-4-yl]-8-(1H-pyrazol-5-yl)-1,7-naphthyridin-4-yl}-1-(tetrahydro-2H-pyran-4-yl)ethanol] showed an IC50 of 1180 nM. Work on `CC(C)COP(C)(=O)c1cc(N2CCOC[C@H]2C)nc2c(-c3ccn[nH]3)nccc12` (stereo partly drawn) [Example 127, isobutyl methyl{2-[(3R)-3-methylmorpholin-4-yl]-8-(1H-pyrazol-5-yl)-1,7-naphthyridin-4-yl}phosphinate] yielded an IC50 of 578 nM. Compound `C[C@@H]1COCCN1c1cc(-c2ccc(N3CCNCC3)cc2F)c2ccnc(-c3ccn[nH]3)c2n1` [Example 81, 4-[2-fluoro-4-(piperazin-1-yl)phenyl]-2-[(3R)-3-methylmorpholin-4-yl]-8-(1H-pyrazol-5-yl)-1,7-naphthyridine] has an IC50 of 245 nM. Work on `C[C@@H]1COCCN1c1cc(N2CCC(CO)CC2)c2ccnc(-c3ccn[nH]3)c2n1` [Example 84, (1-{2-[(3R)-3-methylmorpholin-4-yl]-8-(1H-pyrazol-5-yl)-1,7-naphthyridin-4-yl}piperidin-4-yl)methanol] yielded an IC50 of 130 nM. For `c1ccc(COc2cc(N3CCOCC3)nc3c(-c4cc[nH]n4)nccc23)cc1` [Example 50, 4-benzyloxy-2-(morpholin-4-yl)-8-(1H-pyrazol-3-yl)-[1,7]naphthyridine], the IC50 was over 10000 nM. With `O=C(NC1CC1)c1ccc(-c2cc(N3CCOCC3)nc3c(-c4ccn[nH]4)nccc23)cc1` [Example 291, N-cyclopropyl-4-[2-(morpholin-4-yl)-8-(1H-pyrazol-5-yl)-1,7-naphthyridin-4-yl]benzamide] the IC50 was 1520 nM. `C[C@@H]1COCCN1c1cc(N2CCN(S(C)(=O)=O)CC2)c2ccnc(-c3ccn[nH]3)c2n1` [Example 82, 2-[(3R)-3-methylmorpholin-4-yl]-4-[4-(methylsulfonyl)piperazin-1-yl]-8-(1H-pyrazol-5-yl)-1,7-naphthyridine] showed an IC50 of 529 nM. `c1cc(-c2cc(N3CCOCC3)nc3c(-c4ccn[nH]4)nccc23)c2cccnc2c1` [Example 349, 2-(morpholin-4-yl)-8-(1H-pyrazol-5-yl)-4-(quinolin-5-yl)-1,7-naphthyridine] gave an IC50 of over 3000 nM. `C[C@@H]1COCCN1c1cc(-c2ccn(C)c2)c2ccnc(-c3ccn[nH]3)c2n1` [Example 262, 2-[(3R)-3-methylmorpholin-4-yl]-4-(1-methyl-1H-pyrrol-3-yl)-8-(1H-pyrazol-5-yl)-1,7-naphthyridine] was tested, and the IC50 was 471 nM. Work on `Cc1ccccc1-c1cc(N2CCOCC2)nc2c(-c3ccn[nH]3)nccc12` [Example 318, 4-(2-methylphenyl)-2-(morpholin-4-yl)-8-(1H-pyrazol-5-yl)-1,7-naphthyridine] yielded an IC50 of 2000 nM. Compound `CN(C)c1ccccc1-c1cc(N2CCOCC2)nc2c(-c3ccn[nH]3)nccc12` [Example 321, N,N-dimethyl-2-[2-(morpholin-4-yl)-8-(1H-pyrazol-5-yl)-1,7-naphthyridin-4-yl]aniline] has an IC50 of over 3000 nM. In the case of `Cc1sccc1-c1cc(N2CCOC[C@H]2C)nc2c(-c3ccn[nH]3)nccc12` [Example 103, 2-[(3R)-3-methylmorpholin-4-yl]-4-(2-methyl-3-thienyl)-8-(1H-pyrazol-5-yl)-1,7-naphthyridine], the IC50 is reported as 374 nM. For `CCCCC(C)(O)c1cc(N2CCOC[C@H]2C)nc2c(-c3ccn[nH]3)nccc12` (stereo partly drawn) [Example 284, 2-{2-[(3R)-3-methylmorpholin-4-yl]-8-(1H-pyrazol-5-yl)-1,7-naphthyridin-4-yl}hexan-2-ol], the IC50 was 852 nM. `C[C@@H]1COCCN1c1cc(C2CCSCC2)c2ccnc(-c3ccn[nH]3)c2n1` [Example 241, 2-[(3R)-3-methylmorpholin-4-yl]-8-(1H-pyrazol-5-yl)-4-(tetrahydro-2H-thiopyran-4-yl)-1,7-naphthyridine] gave an IC50 of 171 nM. `Cc1cc(S(C)(=O)=O)ncc1-c1cc(N2CCOCC2)nc2c(-c3ccn[nH]3)nccc12` [Example 6, 4-[4-methyl-6-(methylsulfonyl)pyridin-3-yl]-2-(morpholin-4-yl)-8-(1H-pyrazol-5-yl)-1,7-naphthyridine] showed an IC50 of 1490 nM. Compound `CN(C)C(=O)c1ccc(-c2cc(N3CCOCC3)nc3c(-c4ccn[nH]4)nccc23)cc1` [Example 324, N,N-dimethyl-4-[2-(morpholin-4-yl)-8-(1H-pyrazol-5-yl)-1,7-naphthyridin-4-yl]benzamide] has an IC50 of 2420 nM. Compound `C[C@@H]1COCCN1c1cc(C2=CCNCC2)c2ccnc(-c3ccn[nH]3)c2n1` [Example 245, 2-[(3R)-3-methylmorpholin-4-yl]-8-(1H-pyrazol-5-yl)-4-(1,2,3,6-tetrahydropyridin-4-yl)-1,7-naphthyridine] has an IC50 of 343 nM. For `CCn1cnc(-c2cc(N3CCOC[C@H]3C)nc3c(-c4ccn[nH]4)nccc23)c1` [Example 153, 4-(1-ethyl-1H-imidazol-4-yl)-2-[(3R)-3-methylmorpholin-4-yl]-8-(1H-pyrazol-5-yl)-1,7-naphthyridine], the IC50 was 759 nM. With `C[C@@H]1COCCN1c1cc(-c2[nH]nnc2C2CC2)c2ccnc(-c3ccn[nH]3)c2n1` [Example 194, 4-(4-cyclopropyl-1H-1,2,3-triazol-5-yl)-2-[(3R)-3-methylmorpholin-4-yl]-8-(1H-pyrazol-5-yl)-1,7-naphthyridine] the IC50 was 892 nM. `COc1cccc(-c2cc(N3CCOCC3)nc3c(-c4ccn[nH]4)nccc23)c1F` [Example 317, 4-(2-fluoro-3-methoxyphenyl)-2-(morpholin-4-yl)-8-(1H-pyrazol-5-yl)-1,7-naphthyridine] was tested, and the IC50 was 2980 nM. `C[C@@H]1COCCN1c1cc(-c2ccn(CCF)n2)c2ccnc(-c3ccn[nH]3)c2n1` [Example 158, 4-[1-(2-fluoroethyl)-1H-pyrazol-3-yl]-2-[(3R)-3-methylmorpholin-4-yl]-8-(1H-pyrazol-5-yl)-1,7-naphthyridine] showed an IC50 of 328 nM. Compound `C[C@@H]1COCCN1c1cc(N(C)c2ccc(F)cc2)c2ccnc(-c3ccn[nH]3)c2n1` [Example 87, N-(4-fluorophenyl)-N-methyl-2-[(3R)-3-methylmorpholin-4-yl]-8-(1H-pyrazol-5-yl)-1,7-naphthyridin-4-amine] has an IC50 of 543 nM. `Cc1nn(C)cc1-c1cc(N2CCOCC2)nc2c(-c3ccn[nH]3)nccc12` [Example 271, 4-(1,3-dimethyl-1H-pyrazol-4-yl)-2-(morpholin-4-yl)-8-(1H-pyrazol-5-yl)-1,7-naphthyridine] showed an IC50 of 1330 nM. `Fc1cccc(-c2cc(N3CCOCC3)nc3c(-c4ccn[nH]4)nccc23)c1` [Example 298, 4-(3-fluorophenyl)-2-(morpholin-4-yl)-8-(1H-pyrazol-5-yl)-1,7-naphthyridine] was tested, and the IC50 was 2440 nM. `Cc1ccc(C)c(-c2cc(N3CCOCC3)nc3c(-c4ccn[nH]4)nccc23)c1` [Example 334, 4-(2,5-dimethylphenyl)-2-(morpholin-4-yl)-8-(1H-pyrazol-5-yl)-1,7-naphthyridine] was tested, and the IC50 was over 3000 nM. `CSCc1cc(N2CCOC[C@H]2C)nc2c(-c3ccn[nH]3)nccc12` [Example 186, 2-[(3R)-3-methylmorpholin-4-yl]-4-[(methylsulfanyl)methyl]-8-(1H-pyrazol-5-yl)-1,7-naphthyridine] was tested, and the IC50 was 789 nM.
